Data from US20100227853A1, “INHIBITORS OF CYCLIC AMP PHOSPHODIESTERASES” (Trustees of Boston College, priority 2008, published 2010).

How the values were obtained:
PDE4A1 = molecular target: T1, PDE4A1 (Mus musculus, UniProt O89084); experiment: 5FOA growth assay (high throughput screen, ED50) in fission yeast strain expressing PDE4A1; format: cell-based; settings: for Composite Z score, PDE4A1: high throughput 5FOA growth screen, greater than 8.53 = statistically-significant inhibitor; for 2 Assay (2 uM), 4A1 / 1 Assay (20 uM) 4A1: PDE 4A1
T1 construct: targets used in the assays are full-length proteins (as opposed to simply the catalytic domain); expressed in transfected cells; host or cells: Schizosaccharomyces pombe, PDE gene integrated in place of cgs2
T1 sequence (O89084 1-610 isoform O89084-2): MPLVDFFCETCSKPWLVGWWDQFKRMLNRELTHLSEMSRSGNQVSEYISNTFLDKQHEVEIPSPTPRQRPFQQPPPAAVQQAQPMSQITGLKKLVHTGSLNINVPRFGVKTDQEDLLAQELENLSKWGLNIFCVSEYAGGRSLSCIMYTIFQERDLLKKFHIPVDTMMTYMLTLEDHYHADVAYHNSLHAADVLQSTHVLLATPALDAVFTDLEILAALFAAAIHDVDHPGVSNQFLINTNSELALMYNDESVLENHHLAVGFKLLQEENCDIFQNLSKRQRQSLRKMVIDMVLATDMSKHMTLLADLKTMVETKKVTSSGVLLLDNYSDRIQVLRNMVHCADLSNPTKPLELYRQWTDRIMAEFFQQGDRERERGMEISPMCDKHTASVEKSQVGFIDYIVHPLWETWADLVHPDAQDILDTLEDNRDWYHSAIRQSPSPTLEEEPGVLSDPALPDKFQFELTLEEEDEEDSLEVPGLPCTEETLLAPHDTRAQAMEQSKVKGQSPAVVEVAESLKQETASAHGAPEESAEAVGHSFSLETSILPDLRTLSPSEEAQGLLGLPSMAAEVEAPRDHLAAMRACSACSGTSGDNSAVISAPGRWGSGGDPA
Summary of the method: (§1)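 Readout is OD600 after 48 h at 30° C in 5FOA medium, starting from 0.5–4×10^5 cells/ml; 5 mM cAMP served as positive control. Yeast expressing mouse PDE4A1 or PDE4B3 with an fbp1-ura4 reporter was first grown to exponential phase in EMM plus 0.5–2.5 mM cAMP. Hits were scored by composite Z scores.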

PDE4B3 = molecular target: T2, PDE4B3 (Mus musculus, UniProt Q8VBU5); experiment: 5FOA growth assay in fission yeast strain expressing PDE4B3; format: cell-based, Murine; settings: for Composite Z score, PDE4B3: high throughput 5FOA growth screen; for 2 Assay (2 uM), 4B3 / 1 Assay (20 uM) 4B3: PDE 4B3
T2 construct: targets used in the assays are full-length proteins (as opposed to simply the catalytic domain); expressed in transfected cells; host or cells: Schizosaccharomyces pombe, PDE gene integrated in place of cgs2
T2 sequence (Q8VBU5 1-721): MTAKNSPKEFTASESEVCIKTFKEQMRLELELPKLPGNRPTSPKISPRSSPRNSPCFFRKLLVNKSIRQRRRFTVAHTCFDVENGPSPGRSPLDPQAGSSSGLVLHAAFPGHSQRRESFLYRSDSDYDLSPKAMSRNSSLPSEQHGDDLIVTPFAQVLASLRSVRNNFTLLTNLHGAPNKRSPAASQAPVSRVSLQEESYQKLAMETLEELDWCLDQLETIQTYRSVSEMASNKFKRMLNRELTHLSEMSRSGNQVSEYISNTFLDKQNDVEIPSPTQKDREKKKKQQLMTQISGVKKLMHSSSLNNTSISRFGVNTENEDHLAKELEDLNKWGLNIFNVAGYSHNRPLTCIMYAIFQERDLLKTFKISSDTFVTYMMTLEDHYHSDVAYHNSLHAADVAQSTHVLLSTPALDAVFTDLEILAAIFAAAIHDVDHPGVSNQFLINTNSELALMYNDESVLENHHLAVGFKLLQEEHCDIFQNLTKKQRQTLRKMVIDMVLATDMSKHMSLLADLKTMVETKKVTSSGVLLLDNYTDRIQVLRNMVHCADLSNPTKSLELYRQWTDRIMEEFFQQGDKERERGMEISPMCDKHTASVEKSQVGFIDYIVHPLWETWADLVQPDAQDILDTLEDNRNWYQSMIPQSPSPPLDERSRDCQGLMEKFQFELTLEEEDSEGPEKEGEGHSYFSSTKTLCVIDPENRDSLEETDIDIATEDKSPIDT
Summary of the method: as §1

Row | Compound | Composite Z score, PDE4A1 (PDE4A1) | Composite Z score, PDE4B3 (PDE4B3) | 2 Assay (2 uM), 4A1 (PDE4A1) | 1 Assay (20 uM) 4A1 (PDE4A1) | 2 Assay (2 uM), 4B3 (PDE4B3) | 1 Assay (20 uM) 4B3 (PDE4B3)
1 | CCN(CC)c1nc(C)nc2sc(C(=O)N3CCCCCC3)c(C)c12 [Compound 2040N12] | 7.3705 | 12.239 | – | – | – | –
2 | CCOC(=O)c1ccccc1NC(=O)c1sc2nc(C)nc(N(CC)CC)c2c1C [Compound 2040P12] | 12.157 | 1.0041 | – | – | – | –
3 | Cc1c(C(=O)N(C)Cc2ccccc2)sc2ncnc(N3CCN(c4ccccc4)CC3)c12 [Compound 2041G21] | −0.629 | 33.162 | – | – | – | –
4 | COc1ccc(NC(=O)c2sc3nc(C)nc(N(C)c4ccc(C(C)C)cc4)c3c2C)c(OC)c1 [Compound 2041I04] | 5.2983 | −0.545 | – | – | – | –
5 | Cc1c(C(=O)N2CCCCCC2)sc2ncnc(N3CCN(c4ccccc4)CC3)c12 [Compound 2041I21] | 0.2744 | 7.48 | – | – | – | –
6 | CCC(C)NC(=O)c1sc2nc(C)nc(N(C)c3ccc(C(C)C)cc3)c2c1C (stereo not shown) [Compound 2041K04] | 11.659 | −0.456 | – | – | – | –
7 | OCCNc1ncnc2sc3c(c12)CCCC3 [Compound 2051H22] | 2.4965 | 0.936 | – | – | – | –
8 | c1nc(NCCCN2CCOCC2)c2c3c(sc2n1)CCCC3 [Compound 2051N22] | 1.1862 | −0.998 | – | – | – | –
9 | CCNc1nc(SCC(=O)NC(=O)NCc2ccccc2)nc2sc3c(c12)CCN(C)C3 [Compound 2054N05] | −0.307 | 0.0285 | – | – | – | –
10 | Cc1ccc2c(c1)CCC1CC(=O)CC[C@]21C (stereo partly shown) [Compound 2158J12] | – | – | 2.18 | 81.97 | 8.18 | 37.13

Further lines, results first:

Row | Composite Z score, PDE4A1 (PDE4A1) | Composite Z score, PDE4B3 (PDE4B3) | 2 Assay (2 uM), 4A1 (PDE4A1) | 1 Assay (20 uM) 4A1 (PDE4A1) | 2 Assay (2 uM), 4B3 (PDE4B3) | 1 Assay (20 uM) 4B3 (PDE4B3) | Compound
11 | 12.024 | 3.1975 | – | – | – | – | Cc1nc(N2CCC(C)CC2)c2c(C)c(C(=O)N3CCN(c4ccc(F)cc4)CC3)sc2n1 [Compound 2040N10]
12 | 19.619 | 4.5126 | – | – | – | – | COc1cccc(NC(=O)c2sc3ncnc(N4CCc5ccccc5C4)c3c2C)c1 [Compound 2041K21]
13 | 3.7863 | 9.0572 | – | – | – | – | CCNc1nc(SCC(=O)OCC)nc2sc3c(c12)CCC(C)C3 (stereo not shown) [Compound 2053H16]
14 | 2.3863 | −0.211 | – | – | – | – | CCNc1nc(SCc2ccc(Cl)cc2)nc2sc3c(c12)CCN(C)C3 [Compound 2054P05]
15 | – | – | 6.63 | 11567 | 19.00 | 13.34 | COc1ccc2c(c1)[C@@]1(C)CCC[C@](C)(CO)C1CC2 (stereo partly shown) [Compound 2067M03]
